In patent US20240287064A1, “TRICYCLIC COMPOUND USED AS GPR84 ANTAGONIST” (Wuhan Humanwell Innovative Drug Research and Development …, priority 2021, published 2024):

Experiments:
[1] = Pharmacokinetic experiment in mice; type: in vivo; settings: mouse; male ICR mice, oral gavage 3 mg/kg, plasma
Description: For the pharmacokinetic experiment in mice, male ICR mice, 20 to 25 g, were used and fasted overnight. Three mice were taken and orally administered by gavage (3 mg/kg): blood was collected before the administration, and at 15 min, 30 min, 1 hour, 2 hours, 4 hours, 8 hours, and 24 hours after the administration. The blood samples were centrifuged at 6800 g for 6 min at 2 to 8° C., and plasma was collected and stored at −80° C. 20 μL of plasma at each time point was taken, and added with 200 μL of methanol containing 100 ng/mL internal standard. The mixture was vortexed, mixed evenly, and then centrifuged at 18000 g for 7 min at 2 to 8° ° C. 200 μL of the mixture was transferred to a 96-well injection plate for LC-MS/MS quantitative analysis. The main pharmacokinetic parameters were analyzed using WinNonlin 7.0 software with non-compartmental model.

human GPR84 receptor = molecular target: T1, human GPR84 receptor (Homo sapiens, UniProt Q9NQS5); test: GPR84 antagonistic effect determination (cAMP assay, forskolin and 6-OAU stimulation); type: cell-based; settings: CHO stably transfected cell line highly expressing human GPR84; 2.5 μM Forskolin & 200 nM 6-OAU; cAMP readout; read-out: Antagonistic effect against GPR84, IC50
T1 construct: expressed in transfected cells; host or cells: CHO
T1 sequence (Q9NQS5 whole entry): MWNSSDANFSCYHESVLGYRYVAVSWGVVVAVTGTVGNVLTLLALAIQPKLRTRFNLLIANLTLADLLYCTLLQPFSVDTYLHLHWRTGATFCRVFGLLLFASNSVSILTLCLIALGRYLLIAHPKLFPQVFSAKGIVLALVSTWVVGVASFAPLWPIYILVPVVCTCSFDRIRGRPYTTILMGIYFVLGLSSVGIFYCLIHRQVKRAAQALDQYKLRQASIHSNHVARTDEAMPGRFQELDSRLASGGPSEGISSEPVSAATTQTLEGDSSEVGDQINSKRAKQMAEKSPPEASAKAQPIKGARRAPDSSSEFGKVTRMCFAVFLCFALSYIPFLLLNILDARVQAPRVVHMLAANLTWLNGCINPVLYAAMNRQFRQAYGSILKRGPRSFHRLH
Description: The antagonistic effect of the compound against GPR84 was determined in a CHO stably transfected cell line highly expressing the human GPR84 receptor. The stably transfected cells were cultured until 80% confluence; the cells were collected by trypsinization, counted, and then inoculated into a 384-well plate at 5 L/well. 10× compound working solution was prepared with 1× Stimulation Buffer. […] After the reaction was completed, the content of CAMP in the cells was quantified according to the method in the instructions of the cAMP assay kit (Perkin Elmer, Cat #TRF0263). The antagonistic effect (IC50 value) of the test compounds was calculated.

SMILES | AUC(0-t) [1] [ng·h/mL] | Cmax [1] [ng/mL] | Tmax [1] [min] | half-life [1] [min] | IC50 (human GPR84 receptor) [nM]
O=c1nc(OC[C@@H]2COCCO2)cc2n1CCc1cc(C#CC3CC3)ccc1-2 [Control compound, reference compound] | 7280 | 4120 | 30 | 229 | –
O=c1nc(OCC23CC(CO2)C3)cc2n1CCc1cc(C#CC3CC3)ccc1-2 [Compound I-1, 2-((2-oxabicyclo[2.1.1]hexan-1-yl)methoxy)-9-(cyclopropylethynyl)-6,7-dihydro-4H-pyrimido[6,1-α]isoquinolin-4-one] | 54400 | 14800 | 30 | 61.8 | 27.2
